According to patent publication US20250163104A1, “MACROCYCLIC IMMUNOMODULATORS” (priority 2021, published 2025):
Where a SMILES comes first, the peptide text is derived from it. Bridges are numbered along the chain shown (N, C = ends). [ ]: non-standard residue; d: D form. The star is where a group is joined. ξ: configuration not given here. Phe(4-CONH2) = NC(=O)c1ccc(C[C@H](N)C(=O)O)cc1; Phe(4-COOH) = N[C@@H](Cc1ccc(C(=O)O)cc1)C(=O)O; Bip = N[C@@H](Cc1ccc(-c2ccccc2)cc1)C(=O)O; Phe(3-Me) = Cc1cccc(C[C@H](N)C(=O)O)c1; Val(3-OH) = CC(C)(O)[C@H](N)C(=O)O; hArg = N=C(N)NCCCC[C@H](N)C(=O)O; 4Pal = N[C@@H](Cc1ccncc1)C(=O)O; Cha = N[C@@H](CC1CCCCC1)C(=O)O; Cit = NC(=O)NCCC[C@H](N)C(=O)O; Thr(3ξ) = CC(O)[C@H](N)C(=O)O; Chg = N[C@H](C(=O)O)C1CCCCC1; Carboxymethyl = O=C(O)C*; Nle = CCCC[C@H](N)C(=O)O; Orn = NCCC[C@H](N)C(=O)O; Dab = NCC[C@H](N)C(=O)O; Dap = NC[C@H](N)C(=O)O; Propargyl = C#CC*

What follows are molecules tested against T1, human PD-1 / PD-L1-Ig binding on Jurkat cell line over-expressing human PD-1 (Jurkat-PD-1) (Homo sapiens, UniProt Q15116) (assay: Jurkat-PD-1 Cell Binding High-Content Screening Assay (CBA)). Settings: Jurkat-PD-1 cells, PE-labeled PD-L1-Ig 20 nM final; read-out: Jurkat HPD1_PDL1 IC50.
T1 construct: expressed in transfected cells; host or cells: Jurkat
T1 sequence (Q15116 25-288): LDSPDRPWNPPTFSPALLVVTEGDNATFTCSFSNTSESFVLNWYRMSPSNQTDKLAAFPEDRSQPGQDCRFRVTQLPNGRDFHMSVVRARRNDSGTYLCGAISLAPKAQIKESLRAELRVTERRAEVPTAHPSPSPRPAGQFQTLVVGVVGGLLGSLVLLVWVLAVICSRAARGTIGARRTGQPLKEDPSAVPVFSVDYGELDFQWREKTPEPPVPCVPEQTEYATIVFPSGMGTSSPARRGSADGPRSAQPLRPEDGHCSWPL
Format: cell-based
Method in brief: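 PE-PD-L1-Ig 20 nM final; cells in DMEM/10% FCS; cpd pre-incubation 2 h, 37° C; ligand 1 h; PFA fix + Hoechst 33342; high-content imaging read-out.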

Compound	IC50 [nM]
CC(C)C[C@H]1NC(=O)[C@H](CCCN)NC(=O)[C@H](C(C)C)NC(=O)[C@H](Cc2ccc(-c3ccccc3)cc2)NC(=O)[C@H](C(C)C)NC(=O)[C@H](Cc2c[nH]c3ccccc23)NC(=O)[C@H](CC(=O)O)NC(=O)[C@H](Cc2ccc(OCC(=O)O)cc2)NC(=O)[C@H](CCCCNC(=N)N)NC(=O)CSC[C@@H](C(=O)N[C@@H](CC(N)=O)C(N)=O)NC(=O)[C@H](C(C)O)NC(=O)[C@H](C(C)C)NC(=O)[C@H](CC2CCCCC2)NC(=O)[C@H](CCN)NC1=O (stereo partly drawn) [Compound 2546] ({CH2CO}-[hArg]Y(Carboxymethyl)DWV[Bip]V[Orn][dL][Dab][Cha]V[Thr(3ξ)]CN-NH2; thioether N-14)	7.5
CC(C)C[C@@H]1NC(=O)[C@H](Cc2c[nH]c3ccccc23)NC(=O)[C@H](CC(=O)O)NC(=O)[C@H](Cc2ccc(O)cc2)NC(=O)[C@H](Cc2ccccc2)NC(=O)CSC[C@@H](C(=O)NCC(N)=O)NC(=O)[C@H](CO)NC(=O)[C@H](C(C)C)NC(=O)[C@H](CC(C)C)NC(=O)[C@H](CCN)NC(=O)[C@@H](C)NC(=O)[C@H](CCN)NC(=O)[C@H](C(C)C)NC(=O)[C@H](Cc2ccc(-c3ccccc3)cc2)NC1=O [Compound 1106] ({CH2CO}-FYDWL[Bip]V[Dab][dA][Dab]LVSCG-NH2; thioether N-14)	66.7
Cc1cccc(C[C@@H]2NC(=O)[C@H](CC(=O)O)NC(=O)[C@H](Cc3ccc(OCC(=O)O)cc3)NC(=O)[C@H](Cc3ccc(C(N)=O)cc3)NC(=O)CSC[C@@H](C(=O)N[C@@H](CCN)C(N)=O)NC(=O)[C@H](CCC(N)=O)NC(=O)[C@H](C(C)(C)O)NC(=O)[C@H](CC3CCCCC3)NC(=O)[C@H](CCN)NC(=O)[C@@H](CC(C)C)NC(=O)[C@H](CCCN)NC(=O)[C@H](Cc3ccc(OCC(=O)O)cc3)NC(=O)[C@H](Cc3ccc(-c4ccccc4)cc3)NC(=O)[C@H](Cc3ccc(OCC(=O)O)cc3)NC2=O)c1 [Compound 2069] ({CH2CO}-[Phe(4-CONH2)]Y(Carboxymethyl)D[Phe(3-Me)]Y(Carboxymethyl)[Bip]Y(Carboxymethyl)[Orn][dL][Dab][Cha][Val(3-OH)]QC[Dab]-NH2; thioether N-14)	7.2
Cc1cccc(C[C@@H]2NC(=O)[C@H](CC(=O)O)NC(=O)[C@H](Cc3ccc(C(N)=O)cc3)NC(=O)[C@H](Cc3ccncc3)NC(=O)CSC[C@@H](C(=O)N[C@@H](CCN)C(N)=O)NC(=O)[C@H](CO)NC(=O)[C@H](C(C)(C)O)NC(=O)[C@H](CC3CCCCC3)NC(=O)[C@H](CCN)NC(=O)[C@@H](CC(C)C)NC(=O)[C@H](CCCN)NC(=O)[C@H](Cc3ccc(OCC(=O)O)cc3)NC(=O)[C@H](Cc3ccc(-c4ccccc4)cc3)NC(=O)[C@H](Cc3ccc(OCC(=O)O)cc3)NC2=O)c1 [Compound 2636] ({CH2CO}-[4Pal][Phe(4-CONH2)]D[Phe(3-Me)]Y(Carboxymethyl)[Bip]Y(Carboxymethyl)[Orn][dL][Dab][Cha][Val(3-OH)]SC[Dab]-NH2; thioether N-14)	4.9
CC(C)C[C@H]1NC(=O)[C@H](CCCN)NC(=O)[C@H](C(C)C)NC(=O)[C@H](Cc2ccc(-c3ccccc3)cc2)NC(=O)[C@H](C(C)C)NC(=O)[C@H](Cc2cccc(Cl)c2)NC(=O)[C@H](CC(=O)O)NC(=O)[C@H](Cc2ccc(C(=O)O)cc2)NC(=O)[C@H](Cc2ccc(OCC(=O)O)cc2)NC(=O)CSC[C@@H](C(=O)N[C@@H](C)C(N)=O)NC(=O)[C@H]([C@@H](C)O)NC(=O)[C@H](C(C)C)NC(=O)[C@H](CC2CCCCC2)NC(=O)[C@H](CCN)NC1=O [Compound 1569]	16.4
Cc1cccc(C[C@@H]2NC(=O)[C@H](CC(=O)O)NC(=O)[C@H](Cc3ccc(C(=O)O)cc3)NC(=O)[C@H](Cc3ccncc3)NC(=O)CSC[C@@H](C(N)=O)NC(=O)[C@H](CC(=O)O)NC(=O)[C@H](C(C)C)NC(=O)[C@H](CC3CCCCC3)NC(=O)[C@H](CCN)NC(=O)[C@@H](CC(C)C)NC(=O)[C@H](CCCN)NC(=O)[C@H](CCCNC(N)=O)NC(=O)[C@H](Cc3ccc(-c4ccccc4)cc3)NC(=O)[C@H](C(C)C)NC2=O)c1 [Compound 2270] ({CH2CO}-[4Pal][Phe(4-COOH)]D[Phe(3-Me)]V[Bip][Cit][Orn][dL][Dab][Cha]VDC-NH2; thioether N-14)	24.5
CC(C)C[C@@H]1NC(=O)[C@H](CCCNC(=N)N)NC(=O)[C@@H](CC(C)C)NC(=O)[C@@H](CCCCN)NC(=O)[C@H](CCCNC(=N)N)NC(=O)[C@H](Cc2ccc(-c3ccccc3)cc2)NC(=O)[C@H](C(C)C)NC(=O)[C@H](Cc2c[nH]c3ccccc23)NC(=O)[C@H](CC(=O)O)NC(=O)[C@H](Cc2ccc(O)cc2)NC(=O)[C@H](CC(N)=O)NC(=O)CSC[C@@H](C(=O)N[C@@H](C)C(N)=O)NC(=O)[C@H]([C@@H](C)O)NC(=O)[C@H](C(C)C)NC1=O [Compound 1013] ({CH2CO}-NYDWV[Bip]R[dK][dL]RLVTCA-NH2; thioether N-14)	129
CC(C)C[C@H]1NC(=O)[C@H](CCCN)NC(=O)[C@H](CCCNC(N)=O)NC(=O)[C@H](Cc2ccc(-c3ccccc3)cc2)NC(=O)[C@H](C2CCCCC2)NC(=O)[C@H](Cc2c[nH]c3ccccc23)NC(=O)[C@H](CC(=O)O)NC(=O)[C@H](Cc2ccc(OCC(=O)O)cc2)NC(=O)[C@H](CN)NC(=O)CSC[C@@H](C(=O)N[C@@H](C)C(N)=O)NC(=O)[C@H]([C@@H](C)O)NC(=O)[C@H](C(C)C)NC(=O)[C@H](CC2CCCCC2)NC(=O)[C@H](CCN)NC1=O [Compound 1357] ({CH2CO}-[Dap]Y(Carboxymethyl)DW[Chg][Bip][Cit][Orn][dL][Dab][Cha]VTCA-NH2; thioether N-14)	4.8
CCC[C@@H]1NC(=O)[C@H](Cc2ccc(-c3ccccc3)cc2)NC(=O)[C@H](C(C)C)NC(=O)[C@H](Cc2cccc(C)c2)NC(=O)[C@H](CC(=O)O)NC(=O)[C@H](Cc2ccc(C(=O)O)cc2)NC(=O)[C@H](Cc2ccncc2)NC(=O)CSC[C@@H](C(=O)N[C@@H](C)C(N)=O)NC(=O)[C@H]([C@@H](C)O)NC(=O)[C@H](C(C)C)NC(=O)[C@H](CC2CCCCC2)NC(=O)[C@H](CCN)NC(=O)[C@@H](CC(C)C)NC(=O)[C@H](CCCN)NC1=O [Compound 1615]	15.9
Cc1cccc(C[C@@H]2NC(=O)[C@H](CC(=O)O)NC(=O)[C@H](Cc3ccc(C(=O)O)cc3)NC(=O)[C@H](Cc3ccncc3)NC(=O)CSC[C@@H](C(=O)N[C@H](CC(N)=O)C(N)=O)NC(=O)[C@H](CO)NC(=O)[C@H](C(C)(C)O)NC(=O)[C@H](CC3CCCCC3)NC(=O)[C@H](CCN)NC(=O)[C@@H](CC(C)C)NC(=O)[C@H](CCCN)NC(=O)[C@H](Cc3ccc(C(=O)O)cc3)NC(=O)[C@H](Cc3ccc(-c4ccccc4)cc3)NC(=O)[C@H](Cc3ccc(OCC(=O)O)cc3)NC2=O)c1 [Compound 2655] ({CH2CO}-[4Pal][Phe(4-COOH)]D[Phe(3-Me)]Y(Carboxymethyl)[Bip][Phe(4-COOH)][Orn][dL][Dab][Cha][Val(3-OH)]SC[dN]-NH2; thioether N-14)	110
C#CCOc1ccc(C[C@@H]2NC(=O)[C@H](Cc3ccc(-c4ccccc4)cc3)NC(=O)[C@H](Cc3ccc(C(=O)O)cc3)NC(=O)[C@H](Cc3cccc(C)c3)NC(=O)[C@H](CC(=O)O)NC(=O)[C@H](Cc3ccc(C(=O)O)cc3)NC(=O)[C@H](CCCC)NC(=O)CSC[C@@H](C(=O)N[C@@H](CCN)C(N)=O)NC(=O)[C@H](CCC(=O)O)NC(=O)[C@H](C(C)C)NC(=O)[C@H](CC3CCCCC3)NC(=O)[C@H](CCN)NC(=O)[C@@H](CC(C)C)NC(=O)[C@H](CCCN)NC2=O)cc1 [Compound 1835] ({CH2CO}-[Nle][Phe(4-COOH)]D[Phe(3-Me)][Phe(4-COOH)][Bip]Y(Propargyl)[Orn][dL][Dab][Cha]VEC[Dab]-NH2; thioether N-14)	6.4
CC(C)C[C@@H]1NC(=O)[C@H](Cc2c[nH]c3ccccc23)NC(=O)[C@H](CC(=O)O)NC(=O)[C@H](Cc2ccncc2)NC(=O)[C@H](CN)NC(=O)CSC[C@@H](C(=O)NCC(N)=O)NC(=O)[C@H](CO)NC(=O)[C@H](C(C)C)NC(=O)[C@H](CC2CCCCC2)NC(=O)[C@H](CC(N)=O)NC(=O)[C@@H](CC(C)C)NC(=O)[C@H](CN)NC(=O)[C@H](C(C)C)NC(=O)[C@H](Cc2ccc(-c3ccccc3)cc2)NC1=O [Compound 1395] ({CH2CO}-[Dap][4Pal]DWL[Bip]V[Dap][dL]N[Cha]VSCG-NH2; thioether N-14)	10.1
CC(C)C[C@H]1NC(=O)[C@H](CCCN)NC(=O)[C@H](C(C)C)NC(=O)[C@H](Cc2ccc(-c3ccccc3)cc2)NC(=O)[C@H](C(C)C)NC(=O)[C@H](Cc2c[nH]c3ccccc23)NC(=O)[C@H](CC(=O)O)NC(=O)[C@H](Cc2ccc(OCC(=O)O)cc2)NC(=O)[C@H](Cc2ccc(OCC(=O)O)cc2)NC(=O)CSC[C@@H](C(=O)N[C@@H](C)C(N)=O)NC(=O)[C@H](Cc2cnc[nH]2)NC(=O)[C@H](C(C)C)NC(=O)[C@H](CC2CCCCC2)NC(=O)[C@H](CCN)NC1=O [Compound 1752] ({CH2CO}-Y(Carboxymethyl)Y(Carboxymethyl)DWV[Bip]V[Orn][dL][Dab][Cha]VHCA-NH2; thioether N-14)	6.7
CC(=O)NCCCC[C@@H]1NC(=O)[C@H](Cc2ccc(-c3ccccc3)cc2)NC(=O)[C@H](CC(C)C)NC(=O)[C@H](Cc2c[nH]c3ccccc23)NC(=O)[C@H](CC(=O)O)NC(=O)[C@H](Cc2ccc(OCC(=O)O)cc2)NC(=O)[C@H](C(C)O)NC(=O)CSC[C@@H](C(N)=O)NC(=O)[C@H](C(C)O)NC(=O)[C@H](C(C)C)NC(=O)[C@H](CC2CCCCC2)NC(=O)[C@H](CCC(=O)O)NC(=O)[C@@H](CC(C)C)NC(=O)[C@H](CCC(=O)O)NC1=O (stereo partly drawn) [Compound 2607] ({CH2CO}-[Thr(3ξ)]Y(Carboxymethyl)DWL[Bip]K(Ac)E[dL]E[Cha]V[Thr(3ξ)]C-NH2; thioether N-14)	389
